{
  "source": "patent US7329665B2",
  "about": "“Quinazolinone derivative” (Dainippon Sumitomo Pharma Co., Ltd., priority 2001, dated 2008)",
  "test_system": "rhythmic contractions of the bladder",
  "test": "Effect on rhythmic contractions of bladder (cystometry in urethane-anesthetized rats, i.v. administration)",
  "type": "in vivo",
  "conditions": "female SD-rats under urethane anesthesia, intravenous, ascending doses in 10% PEG, relative to vehicle; for Contractile amplitude: ED30: mean amplitude of bladder contraction during 10-minute period after administration; for Contractile frequency: ED30: mean frequency of bladder contraction during 10-minute period after administration",
  "experimental": "Effect on Rhythmic Contractions of Bladder This test was carried out by some modification of the method of Hedge et al. [Hedge S S. Choppin A. Bonhaus D. Briaud S. Loeb M. Moy T M. Loury D. Eglen R M., British Journal of Pharmacology. 120(8):1409-18, 1997]. Female SD-rats were subjected to abdominal midline incision under urethane anesthesia (0.6 g/kg, s.c. and i.p.), the ureters were ligated, and its kidney side was cut off. A polyethylene cannula was inserted from the urethra into the bladder and the urethra was ligated. The other end of the cannula was connected to a three way connector, to which a constant infusion pump having a 20 ml attached syringe and a pressure transducer for cystometry were also connected. A cannula for administration of a test sample was inserted into the jugular vein and a cannula for measurement of blood pressure and heart rate was inserted into the carotid artery. The intravesical pressure, blood pressure and heart rate were continuously recorded on a polygraph. Physiological saline was infused until rhythmic contractions of the bladder were observed, and after having confirmed stable rhythmic contractions of the bladder, vehicle (10% PEG) and solutions of a test sample dissolved in 10% PEG were administered intravenously in turn from its lower dose. The mean of amplitude and frequency of bladder contraction during a 10-minute period after administration were measured at each dose level, and their rates of change relative to the values obtained when the vehicle alone was administered were calculated, thereby determining ED30 values for the contractile amplitude and the contractile frequency, respectively. It is apparent from Table 1 that the compounds of the present invention depressed not only the contractile amplitude but also the contractile frequency.",
  "data": [
    {"smiles": "Cc1cccc(CN2CCC(N3C(=O)Nc4ccccc4C3C(C)C)CC2)n1", "note": "(single isomer, unassigned; (+)) [Example 3, (+)-4-isopropyl-3-{1-[(6-methyl-2-pyridinyl)methyl]piperidin-4-yl}-3,4-dihydro-2(1H)-quinazolinone]", "values": [
      {"measurement": "Contractile amplitude: ED30", "value": 0.94, "unit": "mg/kg"},
      {"measurement": "Contractile frequency: ED30", "value": 1.79, "unit": "mg/kg"}
    ]},
    {"smiles": "CCCc1cccc(CN2CCC(N3C(=O)Nc4ccccc4C3c3ccccc3)CC2)c1", "note": "(stereo not shown) [Example 2-1, Optically Active Form of 3-[1-(3-propylphenylmethyl)piperidin-4-yl]-4-phenyl-3,4-dihydro-2(1H)-quinazolinone]", "values": [
      {"measurement": "Contractile amplitude: ED30", "value": 1.09, "unit": "mg/kg"},
      {"measurement": "Contractile frequency: ED30", "value": 0.70, "unit": "mg/kg"}
    ]},
    {"smiles": "O=C1Nc2ccccc2C(c2ccccc2)N1C1CCN(Cc2cccc(OCC(F)(F)F)c2)CC1", "note": "(stereo not shown) [Example 2-4, Optically Active Form of 3-{1-[3-(2,2,2-trifluoroethoxy)phenylmethyl]piperidin-4-yl}-4-phenyl-3,4-dihydro-2(1H)-quinazolinone]", "values": [
      {"measurement": "Contractile amplitude: ED30", "value": 1.42, "unit": "mg/kg"},
      {"measurement": "Contractile frequency: ED30", "value": 1.35, "unit": "mg/kg"}
    ]},
    {"smiles": "CC(C)Oc1cccc(CN2CCC(N3C(=O)Nc4ccccc4C3c3ccccc3)CC2)c1", "note": "(stereo not shown) [Example 2-3, Optically Active Form of 3-[1-(3-isopropoxyphenylmethyl)piperidin-4-yl]-4-phenyl-3,4-dihydro-2(1H)-quinazolinone]", "values": [
      {"measurement": "Contractile amplitude: ED30", "value": 1.10, "unit": "mg/kg"},
      {"measurement": "Contractile frequency: ED30", "value": 1.54, "unit": "mg/kg"}
    ]},
    {"smiles": "O=C1Nc2ccccc2C(c2ccccc2)N1C1CCN(Cc2cccc(OC(F)(F)F)c2)CC1", "note": "(single isomer, unassigned; (+)) [Example 1, (+)-3-{1-[3-(trifluoromethoxy)benzyl]piperidin-4-yl}-4-phenyl-3,4-dihydro-2(1H)-quinazolinone]", "values": [
      {"measurement": "Contractile amplitude: ED30", "value": 1.71, "unit": "mg/kg"},
      {"measurement": "Contractile frequency: ED30", "value": 1.31, "unit": "mg/kg"}
    ]}
  ]
}
